# Source: US20120220564A1, “SELECTIVE CALCIUM CHANNEL MODULATORS” (Zalicus Pharmaceuticals Ltd., priority 2009, published 2012)
# What was measured:
# 6 Hz psychomotor seizure = 6 Hz psychomotor seizure model of partial epilepsy; type: in vivo, mice; design: concentration or dose not given beside the values
# Excerpt: Compounds can also be evaluated for the protection against seizures induced by a 6 Hz, 0.2 ms rectangular pulse width of 3 s duration, at a stimulus intensity of 32 mA (CC97) applied to the cornea of male CF1 mice (20-30 g) according to procedures described by Barton et al, “Pharmacological Characterization of the 6 Hz Psychomotor Seizure Model of Partial Epilepsy,” Epilepsy Res. 47(3):217-27 (2001). Seizures are characterised by the expression of one or more of the following behaviours: stun, forelimb clonus, twitching of the vibrissae and Straub-tail immediately following electrical stimulation.
# CYP2D6 = CYP2D6 (Homo sapiens, UniProt P10635); assay: cytochrome inhibition; type: in vitro ADME; settings: read-out: inhibition of cytochrome 2D6
# CYP3A4 = CYP3A4 (Homo sapiens, UniProt P08684); assay: cytochrome inhibition; type: in vitro ADME; settings: read-out: inhibition of cytochrome 3A4
# Excerpt: (§1) In addition to being able to modulate a particular calcium channel (e.g., CaV 3.1, CaV 3.2, or CaV 3.3), it may be desirable that the compound has very low activity with respect to the hERG K^+ channel, which is expressed in the heart: compounds that block this channel with high potency may cause reactions which are fatal. See, e.g., Bowlby et al., “hERG (KCNH2 or KV11.1 K^+ Channels: Screening for Cardiac Arrhythmia Risk,” Curr. Drug Metab. 9(9):965-70 (2008)). […] Such compounds may be particularly useful in the methods described herein.
# CYP2C9 = CYP2C9 (Homo sapiens, UniProt P11712); assay: cytochrome inhibition; type: in vitro ADME; settings: read-out: inhibition of cytochrome 2C9
# Excerpt: as §1
# [1] = system: minimal muscular or neurological impairment (rotarod); assay: Mouse rotarod assay; type: in vivo, mice
# Procedure: To assess a compound's undesirable side effects (toxicity), animals can be monitored for overt signs of impaired neurological or muscular function. In mice, the rotarod procedure (Dunham and Miya, J. Am. Pharmacol. Assoc. 46:208-209 (1957)) is used to disclose minimal muscular or neurological impairment (MMI). When a mouse is placed on a rod that rotates at a speed of 6 rpm, the animal can maintain its equilibrium for long periods of time. The animal is considered toxic if it falls off this rotating rod three times during a 1-min period.
# hERG K+ channel = hERG K+ channel (Homo sapiens, UniProt Q12809); assay: hERG activity
# Excerpt: as §1
# α1H (CaV 3.2) = target: T1, α1H (CaV 3.2) (Homo sapiens, UniProt O95180); assay: T-type calcium channel block, whole cell patch clamp; type: cell-based; settings: HEK cells, mainly non-inactivated protocol; values above 10,000 nM represented as 10000
# T1 construct: expressed in transfected cells; host or cells: HEK 293
# How it was run: (§2)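 HEK293 cells stably expressing human T-type channels, whole-cell patch clamp; compounds in external solution with 0.1-0.01% DMSO, applied by gravity. Mainly non-inactivating protocol: holding −110 mV, 1 s pre-pulse −100 mV, 50 ms test pulse −40 mV (inactivated protocol uses ~−85 mV pre-pulse); IC50 reported.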
# α1G (CaV 3.1) = target: T2, α1G (CaV 3.1) (Homo sapiens, UniProt O43497); assay: as above; type: cell-based; settings: HEK cells, mainly non-inactivated protocol; values above 10,000 nM represented as 10000
# T2 construct: expressed in transfected cells; host or cells: HEK 293
# How it was run: as §2
# T1 sequence (O95180 whole entry): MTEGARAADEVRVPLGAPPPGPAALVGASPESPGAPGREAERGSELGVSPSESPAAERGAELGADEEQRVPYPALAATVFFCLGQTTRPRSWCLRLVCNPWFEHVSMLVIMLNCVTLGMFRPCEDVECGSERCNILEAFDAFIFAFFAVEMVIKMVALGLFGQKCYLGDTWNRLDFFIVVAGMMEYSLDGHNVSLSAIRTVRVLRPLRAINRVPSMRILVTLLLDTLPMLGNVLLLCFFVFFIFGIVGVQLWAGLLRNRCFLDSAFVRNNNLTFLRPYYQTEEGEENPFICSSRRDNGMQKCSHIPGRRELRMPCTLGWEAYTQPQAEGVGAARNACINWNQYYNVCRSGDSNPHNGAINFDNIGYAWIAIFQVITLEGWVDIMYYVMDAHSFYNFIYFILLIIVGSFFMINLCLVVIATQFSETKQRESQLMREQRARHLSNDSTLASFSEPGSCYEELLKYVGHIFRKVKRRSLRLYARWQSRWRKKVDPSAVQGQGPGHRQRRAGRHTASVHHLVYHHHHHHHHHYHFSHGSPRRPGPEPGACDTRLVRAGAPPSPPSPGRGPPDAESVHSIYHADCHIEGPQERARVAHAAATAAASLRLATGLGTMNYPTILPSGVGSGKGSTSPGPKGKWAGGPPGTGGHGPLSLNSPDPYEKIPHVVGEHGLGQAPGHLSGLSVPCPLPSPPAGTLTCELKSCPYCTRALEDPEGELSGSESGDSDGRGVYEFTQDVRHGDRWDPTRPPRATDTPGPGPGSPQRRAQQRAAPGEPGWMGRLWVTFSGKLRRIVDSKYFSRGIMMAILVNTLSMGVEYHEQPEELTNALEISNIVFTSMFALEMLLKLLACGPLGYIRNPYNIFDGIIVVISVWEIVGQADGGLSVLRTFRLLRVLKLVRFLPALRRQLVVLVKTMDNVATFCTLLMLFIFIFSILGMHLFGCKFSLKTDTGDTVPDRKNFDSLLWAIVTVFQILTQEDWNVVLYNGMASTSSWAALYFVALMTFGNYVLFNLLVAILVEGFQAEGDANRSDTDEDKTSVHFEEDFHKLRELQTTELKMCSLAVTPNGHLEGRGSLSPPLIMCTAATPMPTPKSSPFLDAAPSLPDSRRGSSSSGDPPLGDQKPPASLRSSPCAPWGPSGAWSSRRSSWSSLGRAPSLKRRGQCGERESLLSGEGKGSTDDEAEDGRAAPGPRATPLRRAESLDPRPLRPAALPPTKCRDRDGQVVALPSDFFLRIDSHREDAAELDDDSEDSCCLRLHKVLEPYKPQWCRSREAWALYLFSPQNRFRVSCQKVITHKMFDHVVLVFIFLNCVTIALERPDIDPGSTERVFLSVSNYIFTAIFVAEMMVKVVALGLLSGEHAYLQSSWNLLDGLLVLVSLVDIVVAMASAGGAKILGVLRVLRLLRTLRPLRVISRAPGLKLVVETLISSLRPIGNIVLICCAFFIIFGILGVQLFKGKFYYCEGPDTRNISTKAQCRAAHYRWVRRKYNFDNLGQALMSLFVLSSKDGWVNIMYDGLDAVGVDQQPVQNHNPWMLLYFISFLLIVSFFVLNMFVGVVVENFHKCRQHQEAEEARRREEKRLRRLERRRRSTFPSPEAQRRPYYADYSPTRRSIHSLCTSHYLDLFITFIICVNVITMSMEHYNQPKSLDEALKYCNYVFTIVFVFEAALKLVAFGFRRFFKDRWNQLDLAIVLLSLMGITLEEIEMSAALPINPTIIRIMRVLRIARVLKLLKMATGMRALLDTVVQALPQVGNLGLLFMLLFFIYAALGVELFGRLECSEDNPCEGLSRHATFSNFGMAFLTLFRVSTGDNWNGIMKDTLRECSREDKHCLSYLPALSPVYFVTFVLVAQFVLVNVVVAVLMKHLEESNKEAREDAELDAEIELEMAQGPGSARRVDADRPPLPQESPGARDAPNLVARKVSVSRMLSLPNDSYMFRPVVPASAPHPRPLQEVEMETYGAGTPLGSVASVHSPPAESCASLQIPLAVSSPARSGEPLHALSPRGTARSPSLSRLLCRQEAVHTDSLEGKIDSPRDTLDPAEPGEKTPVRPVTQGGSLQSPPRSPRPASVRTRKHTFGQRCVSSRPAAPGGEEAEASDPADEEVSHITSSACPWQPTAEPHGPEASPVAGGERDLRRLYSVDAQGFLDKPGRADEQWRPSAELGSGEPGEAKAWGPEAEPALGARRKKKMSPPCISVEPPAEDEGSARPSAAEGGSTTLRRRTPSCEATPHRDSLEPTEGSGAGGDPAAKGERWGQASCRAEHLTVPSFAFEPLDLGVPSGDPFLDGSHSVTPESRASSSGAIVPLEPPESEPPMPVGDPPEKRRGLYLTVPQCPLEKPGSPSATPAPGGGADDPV
# CYP2C9, sequence (P11712 whole entry): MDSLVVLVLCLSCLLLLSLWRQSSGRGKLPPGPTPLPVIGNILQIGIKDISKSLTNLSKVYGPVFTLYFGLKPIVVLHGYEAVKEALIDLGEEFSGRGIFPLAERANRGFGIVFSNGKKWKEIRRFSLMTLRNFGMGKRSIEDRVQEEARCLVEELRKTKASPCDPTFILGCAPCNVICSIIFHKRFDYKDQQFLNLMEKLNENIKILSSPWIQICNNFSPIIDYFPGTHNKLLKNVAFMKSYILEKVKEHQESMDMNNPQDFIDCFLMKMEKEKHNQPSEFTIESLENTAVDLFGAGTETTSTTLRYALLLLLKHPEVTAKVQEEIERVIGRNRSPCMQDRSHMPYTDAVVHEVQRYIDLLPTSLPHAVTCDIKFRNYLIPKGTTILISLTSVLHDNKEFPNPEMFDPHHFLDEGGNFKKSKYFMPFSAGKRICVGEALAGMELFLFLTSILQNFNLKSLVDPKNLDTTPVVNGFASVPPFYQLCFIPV
# hERG K+ channel, sequence (Q12809 whole entry): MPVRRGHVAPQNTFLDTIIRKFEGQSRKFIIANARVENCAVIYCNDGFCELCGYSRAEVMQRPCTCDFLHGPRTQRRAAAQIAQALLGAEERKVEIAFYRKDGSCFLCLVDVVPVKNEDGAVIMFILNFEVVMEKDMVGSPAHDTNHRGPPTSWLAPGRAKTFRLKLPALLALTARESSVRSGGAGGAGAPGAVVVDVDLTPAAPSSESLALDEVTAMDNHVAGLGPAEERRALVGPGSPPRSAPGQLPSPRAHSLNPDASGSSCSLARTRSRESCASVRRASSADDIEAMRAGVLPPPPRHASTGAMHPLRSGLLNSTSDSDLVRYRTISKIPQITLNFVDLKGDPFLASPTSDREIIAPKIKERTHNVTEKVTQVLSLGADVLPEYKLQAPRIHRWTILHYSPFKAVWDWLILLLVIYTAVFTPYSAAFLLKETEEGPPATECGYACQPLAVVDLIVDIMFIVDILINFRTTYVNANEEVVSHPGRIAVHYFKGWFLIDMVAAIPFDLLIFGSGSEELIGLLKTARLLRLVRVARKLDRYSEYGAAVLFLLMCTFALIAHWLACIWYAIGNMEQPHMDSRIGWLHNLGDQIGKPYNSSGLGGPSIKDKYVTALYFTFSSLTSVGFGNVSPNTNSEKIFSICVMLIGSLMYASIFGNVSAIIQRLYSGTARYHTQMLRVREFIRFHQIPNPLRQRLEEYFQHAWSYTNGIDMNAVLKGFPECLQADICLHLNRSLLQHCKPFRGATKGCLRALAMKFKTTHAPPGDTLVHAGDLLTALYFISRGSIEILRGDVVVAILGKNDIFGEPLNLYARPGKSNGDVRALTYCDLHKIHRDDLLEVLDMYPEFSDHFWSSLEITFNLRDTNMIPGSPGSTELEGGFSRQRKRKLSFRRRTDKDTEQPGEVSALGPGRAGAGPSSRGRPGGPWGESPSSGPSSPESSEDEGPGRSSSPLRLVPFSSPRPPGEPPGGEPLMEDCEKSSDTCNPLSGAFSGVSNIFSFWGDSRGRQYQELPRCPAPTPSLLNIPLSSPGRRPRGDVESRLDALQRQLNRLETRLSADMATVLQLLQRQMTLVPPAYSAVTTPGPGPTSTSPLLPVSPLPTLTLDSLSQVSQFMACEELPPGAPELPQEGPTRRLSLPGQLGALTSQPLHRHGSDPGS
# CYP2D6, sequence (P10635 whole entry): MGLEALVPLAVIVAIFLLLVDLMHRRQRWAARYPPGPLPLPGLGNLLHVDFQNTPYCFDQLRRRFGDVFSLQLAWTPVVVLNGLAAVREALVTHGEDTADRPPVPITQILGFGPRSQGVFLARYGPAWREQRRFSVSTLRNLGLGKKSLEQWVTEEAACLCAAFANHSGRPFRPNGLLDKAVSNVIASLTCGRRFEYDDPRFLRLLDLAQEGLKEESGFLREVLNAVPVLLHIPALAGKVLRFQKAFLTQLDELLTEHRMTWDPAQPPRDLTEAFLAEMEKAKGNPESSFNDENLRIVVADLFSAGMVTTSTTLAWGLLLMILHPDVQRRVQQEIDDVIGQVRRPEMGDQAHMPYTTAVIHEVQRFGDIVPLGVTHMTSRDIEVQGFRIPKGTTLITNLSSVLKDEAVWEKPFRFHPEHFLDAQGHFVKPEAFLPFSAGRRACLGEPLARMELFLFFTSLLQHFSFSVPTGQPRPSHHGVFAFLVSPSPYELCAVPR
# CYP3A4, sequence (P08684 whole entry): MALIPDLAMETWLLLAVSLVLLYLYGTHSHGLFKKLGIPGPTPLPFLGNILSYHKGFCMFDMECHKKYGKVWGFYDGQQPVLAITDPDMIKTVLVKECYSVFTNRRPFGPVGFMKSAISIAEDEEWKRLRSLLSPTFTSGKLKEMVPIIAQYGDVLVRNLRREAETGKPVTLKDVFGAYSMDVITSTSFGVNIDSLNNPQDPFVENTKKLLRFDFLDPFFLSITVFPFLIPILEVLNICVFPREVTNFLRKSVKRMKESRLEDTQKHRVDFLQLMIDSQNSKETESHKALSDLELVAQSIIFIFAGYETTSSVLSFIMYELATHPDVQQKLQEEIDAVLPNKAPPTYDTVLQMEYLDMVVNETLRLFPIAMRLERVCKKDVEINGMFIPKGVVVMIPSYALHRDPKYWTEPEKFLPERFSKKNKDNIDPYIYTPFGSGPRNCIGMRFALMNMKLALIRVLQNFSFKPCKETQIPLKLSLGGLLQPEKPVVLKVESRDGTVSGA
Compound,Epilepsy 6 Hz (% Protected) (6 Hz psychomotor seizure; 0.25 hr) [%],Epilepsy 6 Hz (% Protected) (6 Hz psychomotor seizure; 0.5 hr) [%],Epilepsy 6 Hz (% Protected) (6 Hz psychomotor seizure; 1 hr) [%],Epilepsy 6 Hz (% Protected) (6 Hz psychomotor seizure; 2 hr) [%],Epilepsy 6 Hz (% Protected) (6 Hz psychomotor seizure; 4 hr) [%],inhibition at 10 micromolar (CYP2D6) [%],inhibition at 10 micromolar (CYP3A4) [%],inhibition at 10 micromolar (CYP2C9) [%],Rotarod Assay (% impaired) ([1]; 0.25 hr) [%],Rotarod Assay (% impaired) ([1]; 0.5 hr) [%],Rotarod Assay (% impaired) ([1]; 1 hr) [%],Rotarod Assay (% impaired) ([1]; 2 hr) [%],Rotarod Assay (% impaired) ([1]; 4 hr) [%],hERG activity (hERG K+ channel),IC50 (α1H (CaV 3.2)) [nM],IC50 (α1G (CaV 3.1)) [nM]
"N[C@@H]1CCCC[C@H]1C(=O)N1CCC(CC(=O)Nc2cc(C(F)(F)F)cc(C(F)(F)F)c2)CC1 (racemic) [Compound 3, trans-2-(1-(2-aminocyclohexanecarbonyl)piperidin-4-yl)-N-(3,5-bis(trifluoromethyl)phenyl)acetamide]",100,75,100,0,50,< 10,< 10,< 10,0,75,100,75,50,negligible,60,> 10000
"N-(3,5- bis(trifluoromethyl) phenyl)-2-(1- (piperidine-3- carbonyl)piperidin-4- yl)acetamide [Compound 2]",50,50,100,33,0,,,,25,50,100,100,50,,350,
